In patent US20250152743A1, “SYNPOPTOSIS CIRCUITS FOR PROGRAMMABLE CELL DEATH CONTROL” (California Institute of Technology, priority 2023, published 2025):
Entries after “also recorded” stand apart in the source; their conditions may differ.

How the values were obtained:
Format in all cases: cell-based, human
[1] = test system: HEK293FT cells; assay: Co-transfection time course, cell death every 24 h over 4 days; conditions: P3/P4-zipper reconstituted TEVP
Procedure: Moreover, it was evaluated if some of these mutations affect the maximal caspase activation accessible and the time dependency between caspase activation and cell death by co-transfecting (i) input proteases (P3/P4-zipper reconstituted TEVP as a positive control, split TEVP without reconstitution domain as a negative control, or NeoR to evaluate caspase baseline activity; all with IRES-BFP to enable expression tracking) and (ii) output caspase (“ENLYFQS” (SEQ ID NO: 2)/“ENLYFQQ” (SEQ ID NO: 4)/“ENLFFQQ” (SEQ ID NO: 7)+co-transfected GFP for expression tracking) in HEK293FT cells and measuring cell death every 24 h over the course of 4 days.

[2] = test system: HEK293FT cells; assay: Polytransfection of input proteases and caspase cleavage-site variants, Annexin staining; conditions: order, decreasing: ENLFFQQ; ENLFFQY; ENLYFQS+TEVP-cleavable DHFR; ENLFFQS~ENLYFQY~ENLYFQQ; ENLYFQS; both TEVP and TVMVP cleavage site
Text: The cleavage efficiency of proteases is known to depend on corresponding accessible cleavage sites. Mutations to native protease cleavage sites can slow (i) the recruitment of substrates to the protease active site, (ii) catalytic reaction steps, or (iii) the release of the substrate from the protease. As described herein, this property to modulate cell death executioner activation thresholds. Specifically, we surveyed the following constructs with modified protease cleavage sites across a wide range of possible cell death executioner and input protease expression regimes:
Caspase 3 with ENLYFQS TEVP protease cleavage site (native protease cleavage site is ENLYFQG/S, SEQ ID NOs: 1-2), which serves as a control; Caspase 3 with ENLYFQY (SEQ ID NO: 3) TEVP protease cleavage site; Caspase 3 with ENLYFQQ (SEQ ID NO: 4) TEVP protease cleavage site; Caspase 3 with ENLFFQS (SEQ ID NO: 5) TEVP protease cleavage site; Caspase 3 with ENLFFQY (SEQ ID NO: 6) TEVP protease cleavage site; Caspase 3 with ENLFFQQ (SEQ ID NO: 7) TEVP protease cleavage site; Caspase 3 with both native TEVP and TVMVP cleavage sites separated by linker; Caspase 3 with native TEVP cleavage site fused to C-terminal TEVP-cleavable DHFR degron.
To evaluate how the mutated protease cleavage sites affect Caspase 3 activation, we polytransfected (i) input proteases (P3/P4-zipper reconstituted TEVP as a positive control, split TEVP without reconstitution domain as a negative control, or NeoR to evaluate caspase baseline activity; all with IRES-BFP to enable expression tracking) and (ii) output caspase (caspase+co-transfected GFP for expression tracking) in HEK293FT cells. Annexin staining as described above in Example 1 was used to quantify cell death.

[3] = test system: HEK cells; assay: Transient DNA transfection of HEK cells, Annexin/Sytox staining, flow cytometry; conditions: tev, tvmv and hcv sites
Procedure: HEK cells were transiently co-transfected with DNA encoding the circuits, often along with Cherry, a fluorescent protein marker, and cells were analyzed by flow cytometry 16 to 24 hours later. To quantify cell death, the cells were strained with Annexin, Sytox, or both. Annexin stains apoptotic cells by binding to phosphatidylserine exposed on the outer leaflet, and pyroptotic cells by binding to phosphatidylserine in the inner leaflet after membrane permeabilization. In contrast, Sytox, a membrane-impermeable dye, primarily stains pyroptotic cells. Therefore, apoptotic cells are typically Annexin-high and Sytox-low, while pyroptotic cells are Annexin-high and Sytox-high (FIG. 7B). For simplicity, in experiments involving only a single death mode, a single relevant dye was often used. To focus on cells influenced by the circuits, the fraction of Annexin- or Sytox-positive cells was calculated after gating on the fluorescent co-transfection marker (FIG. 7C).
On the day before transfection, HEK cells were seeded at a density of 0.3-0.6 million cells per well on a 12-well plate, 0.1-0.3 million cells per well on a 24-well plate, or 15,000-50,000 cells per well on a 96-well plate. The cells were allowed to attach to the plate overnight, for at least 8 hours. On the day of transfection, we treated the cells with purified DNA plasmids encoding circuit components. […]

[4] = test system: HEK cells; assay: Q-VD-OPh on circuit-induced cell death, flow cytometry; conditions: Q-VD-OPh 30 μM
Procedure: Then, because naturally occurring cell death can be modulated by small-molecule compounds, the effect of Q-VD-OPh, a caspase inhibitor, on synpoptosis circuits was investigated (FIG. 2C). […] It was also asked whether cells treated with synpoptosis circuits stain positive for TO-PRO-3, a dye that enters apoptotic cells through pannexin channels and pyroptotic cells through permeabilized membranes.
On the day before transfection, HEK cells were seeded at a density of 0.3-0.6 million cells per well on a 12-well plate, 0.1-0.3 million cells per well on a 24-well plate, or 15,000-50,000 cells per well on a 96-well plate. The cells were allowed to attach to the plate overnight, for at least 8 hours. On the day of transfection, we treated the cells with purified DNA plasmids encoding circuit components. In addition to plasmids encoding circuit components, we often included a plasmid encoding a fluorescent co-transfection marker, at roughly 50 ng DNA per well on a 24-well plate. Given the different number of molecular components in each synthetic circuit and their various relative ratios, the total amount of DNA ranged from 50 to 1 μg per well on a 24-well plate, and was scaled by 0.5 or 4 when other 12-well or 96-well plates were used, respectively. […]

Molecule | maximal caspase activation / maximal fraction of dead cells [1] | input/output expression required for caspase activation (activation threshold) [2] | other results
ENLYFQQ: caspase 3 with modified TEVP cleavage site (left off: small tags and cut ends) | comparable maximal fraction of dead cells | in decreasing order | 
ENLYFQY: caspase 3 with modified TEVP cleavage site (left off: small tags and cut ends) |  | in decreasing order | 
hepatitis C virus protease [HCVP, reference compound] |  |  | activation of cognate engineered GSDMs containing the cleavage sites [3]: orthogonally activated their cognate engineered GSDMs
ENLFFQQ: caspase 3 with modified TEVP cleavage site (left off: small tags and cut ends) | reduces the maximum activation to a degree where the complete killing of the cell population is not possible anymore | requires the highest input/output expression for activation | 
CC(C)[C@H](NC(=O)c1ccc2ccccc2n1)C(=O)N[C@@H](CC(=O)O)C(=O)COc1c(F)cccc1F [Q-VD-OPh, Quinoline-Val-Asp-Difluorophenoxymethylketone] |  |  | apoptosis induced by the caspase-3 circuit [4]: suppressed circuit-induced apoptosis; also recorded: markedly attenuated apoptosis; pyroptosis mediated by the GSDMA circuit [4]: did not affect pyroptosis
ENLFFQY: caspase 3 with modified TEVP cleavage site (left off: small tags and cut ends) |  | in decreasing order | 
